Where two headings read alike, the source gives them in different places.
How the values were obtained:
[1] = test system: Guinea Pig Platelets; experiment: In vitro inhibition of collagen-induced platelet aggregation, guinea pig platelet-rich plasma; assay type: cell-based; conditions: guinea pig PRP, collagen 1 μg/ml, 3 minutes of contact at 37° C.
Description: (§1) A study of the inhibitory activity of the compounds of formula I on platelet aggregation was carried out in vitro, i.e. by direct contact of solutions of variable concentrations of the compounds with platelets freshly separated from a sample of whole blood, taken under standardized conditions, from laboratory animals (guinea pigs) and from healthy human subjects who have not received any substances or drugs that might interfere with blood clotting. The anti-platelet-aggregating activity was also studied ex vivo/vitro, i.e. after administration of the substances claimed in guinea pigs to measure the intensity and duration of the anti-aggregating action induced by the fraction of the test product absorbed and circulating in the blood.
1.1. Studies on Guinea Pig Platelets
Blood is taken by intracardiac puncture from male Dunkin-Hartley guinea pigs (weighing about 330 g), at a rate of 4.5 ml per 0.5 ml of trisodium citrate (concentration of the aqueous solution: 1.55%) in order to prevent all trace of clotting. The platelet-rich plasma (PRP) is obtained by centrifuging the tubes of whole blood for 15 minutes at 150 g.
The PRPs are collected as. “pools”. The platelets contained in these pools are counted using a Coulter ZM haematology automatic device: if necessary, a dilution is carried out in order for the platelet concentration in the plasma to be between 200,000 and 400,000 platelets/mm^3. Simultaneously, other samples of these pools serve to prepare the platelet-poor plasma (PPP) by centrifugation at 1,500 g for 15 minutes.
The kinetic study of the platelet aggregation is carried out by adding a collagen solution (1 μg/ml) to a volume of PRP, using a Chrono-log Corporation aggregometer (490-D1 or 560 VS) which uses an optical detection of the appearance of the thrombus.
The measurements of the aggregation inhibition are carried out after 3 minutes of contact at 37° C. with agitation.

[2] = test system: Human Platelets; experiment: In vitro inhibition of collagen-induced platelet aggregation, human platelet-rich plasma; assay type: cell-based; conditions: human PRP, collagen 5 μg/ml, 3 minutes of contact at 37° C., read-out: IC50 (M) in vitro Man
Description: A study of the inhibitory activity of the compounds of formula I on platelet aggregation was carried out in vitro, i.e. by direct contact of solutions of variable concentrations of the compounds with platelets freshly separated from a sample of whole blood, taken under standardized conditions, from laboratory animals (guinea pigs) and from healthy human subjects who have not received any substances or drugs that might interfere with blood clotting. The anti-platelet-aggregating activity was also studied ex vivo/vitro, i.e. after administration of the substances claimed in guinea pigs to measure the intensity and duration of the anti-aggregating action induced by the fraction of the test product absorbed and circulating in the blood. 1.2 Study on Human Platelets Venous blood is taken from a group of ten healthy human subjects of the same age, by puncture into a vein of the fold of the elbow and is collected in a glass tube containing aqueous 0.129 M sodium citrate solution (1 volume of citrate solution per 9 volumes of blood). Each tube is then centrifuged a first time at 20° C. and 100 g for 15 minutes in order to obtain the platelet-rich plasma (PRP); after removing this PRP, the tube is again centrifuged at 2,000 g for 15 minutes in order this time to remove the platelet-poor plasma (PPP). For each identified sample of PRP, the platelets are counted using a Coulter ZM counter. […] A control test intended to check the possible effect of the solvents (reference value) on the platelet aggregation is introduced into each measurement series, and is measured after 3 minutes of contact at 37° C. with agitation.

[3] = test system: platelet aggregation induced by collagen; experiment: Ex vivo/vitro anti-platelet-aggregating activity in guinea pigs after gastric administration; set-up: species or system guinea pig; conditions: 150 mg/kg; for % of g.r. inhibition guinea pig ex vivo d = 150 mg/kg −1 h: administered 1 h before blood is taken; for % of g.r. inhibition guinea pig ex vivo d = 150 mg/kg −2 h: administered 2 h before blood is taken
Description: as §1
2. ex vivo/vitro Pharmacological Study in Guinea Pigs
Evaluation of the anti-platelet-aggregating activity of the compounds is carried out in the same guinea pigs as those mentioned above (Dunkin-Hartley strain). The administration of each product in a range of doses from 150 mg/kg to 10 mg/kg and of each vehicle (5 ml/kg) is carried out via the gastric route (g.r.) 1h or 2h or 4h or 6h or 8h or 12h before blood is taken from the guinea pigs fasted the day before. The allocation of the treatments to the animals is random.
The blood is taken and then treated under the same conditions as those described above for the in vitro studies.
The results of the inhibition of the platelet aggregation obtained for each test concentration make it possible to calculate the IC50 concentration of each test product and the kinetics of the inhibitory effect and its duration of action.

| Compound | IC50 ([1]; Cavia porcellus, Platelet, 0.05 h) | IC50 ([2]; Platelet, 0.05 h) | % of g.r. inhibition guinea pig ex vivo d = 150 mg/kg −1 h [3] | % of g.r. inhibition guinea pig ex vivo d = 150 mg/kg −2 h [3] | IC50 [1] | IC50 [2] |
| --- | --- | --- | --- | --- | --- | --- |
| Cl.N=C(N)c1ccc(N2CCN(CC(=O)NC(CC(=O)O)c3ccc4c(c3)OCO4)CC2=O)cc1 (centres unmarked) [Example 30, 3-{[2-(4-{4-[amino(imino)methyl]phenyl}-3-oxopiperazino)acetyl]amino}-3-(1,3-benzodioxol-5-yl)propanoic acid hydrochloride] | 15 µM | 1.2e-06 M | −14% | −17% | – | – |
| Ethyl 3-{[2-(4-{4-[amino(imino)methyl]phenyl}-2-oxopiperazino)-acetyl]amino}-3-(pyridyl)propanoate acetate [Example 20] | – | – | −65% | −64% | 0.63 µM | 2.8e-05 M |

From patent US6344456B1, “Piperazinone derivatives and their uses” (Laboratoire L. Lafon, priority 1998, dated 2002)
